Test results taken from patent publication US20240182893A1, “INHIBITION OF FGR REDUCES FIBROSIS” (UNIVERSITY OF PITTSBURGH-OF THE COMMONWEALTH SYSTEM OF …, priority 2021, published 2024).
Entries after “also recorded” stand apart in the source; their conditions may differ.

Key:
Fgr [1] = biological target: Fgr (Homo sapiens, UniProt P09769); conditions: cited from earlier work
gfp+ bone marrow cells = experiment: Transwell cell migration assay, gfp+ bone marrow cells towards senescent cells (3-micron filter); assay type: cell-based, mouse; conditions: TL02-59 10 nM, 48 h, FIG. 45A, C, D
Method: FIG. 45A-FIG. 45F. […] FIG. 45A—The tdTOMp16+ cells either irradiated or non-irradiated were sorted by FACS for either tdTOM+ or tdTOM− cells, and each population was placed in the bottom chamber of each culture, well separated by a 3-micron filter. Gfp+ bone marrow cells were placed on the top chamber of each well and migration assay was carried out (3-micron membrane). The Fgr inhibitor TL02-59 (10 nM) (Shen K et al. Sci Signal 11(553): eaat5916, 2018) or RS 504393 (10 μM), a Ccl2 inhibitor, which is a CCR2 chemokine receptor antagonist, was added to cultures 24 h later. The migration of gfp+ bone marrow cells from the top chamber through the 3-micron filter to the bottom chamber was imaged and total gfp+ cells were counted. FIG. 45B—Image of gfp+ migrating cells through the filter at 24 h for each condition (×100). At 48 h, emigrated gfp+ cells in the bottom well were counted by FACS. After 48 h, migrating total. (FIG. 45C) gfp+ cells, and (FIG. 45D) gfp+ CD45+ cells were counted by FACS. […] Cell migration from the top wells to the bottom wells was evaluated by imaging and by (FIG. 45F) FACS analysis. (n=3, ****p=0.0001). p-Values were calculated by the t-test.
In vitro transwell experiments. […] The migration of gfp+ cells through the filter to the bottom compartment was measured by imaging the bottom wells and counting gfp+ cells relative to numbers of senescent TOM+ (red) cells. […]

other similar kinases = conditions: cited from earlier work
[2] = system: tdTOMp16+ red senescent cells; experiment: Chemokine array of media from sorted senescent tdTOMp16+ cells; assay type: cell-based, mouse; conditions: TL02-59 10 nM, 72 hours, FIG. 50
Method: FIG. 50. […] Using chemokine array relative amounts of chemokines secreted in the media was measured. (n=2, *, p<0.05, p values were calculated using unpaired t-test).

Src-family kinase Fgr = Src-family kinase Fgr (Homo sapiens, UniProt P09769); conditions: cited from earlier work
Src-family kinase Fgr, sequence (P09769 whole entry): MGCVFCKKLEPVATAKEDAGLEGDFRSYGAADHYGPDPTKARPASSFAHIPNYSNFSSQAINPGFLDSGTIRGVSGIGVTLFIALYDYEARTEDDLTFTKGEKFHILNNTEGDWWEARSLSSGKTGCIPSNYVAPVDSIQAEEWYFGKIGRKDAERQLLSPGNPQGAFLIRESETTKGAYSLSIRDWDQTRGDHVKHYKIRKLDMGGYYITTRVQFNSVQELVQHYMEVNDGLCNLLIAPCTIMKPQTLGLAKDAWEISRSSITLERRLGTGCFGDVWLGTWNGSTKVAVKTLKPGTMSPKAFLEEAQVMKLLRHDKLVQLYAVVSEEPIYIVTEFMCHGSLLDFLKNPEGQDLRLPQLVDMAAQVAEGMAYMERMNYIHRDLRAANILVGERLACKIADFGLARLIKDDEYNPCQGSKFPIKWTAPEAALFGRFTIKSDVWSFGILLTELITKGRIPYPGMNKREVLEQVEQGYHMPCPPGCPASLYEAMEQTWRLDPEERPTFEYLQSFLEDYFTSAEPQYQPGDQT

Fgr [3] = biological target: T1, Fgr (Mus musculus, UniProt P14234); experiment: Western blot of Fgr phosphorylation in tdTOMp16+ cells (phospho-Fgr antibody); assay type: cell-based
T1 construct: endogenous in cells; host or cells: tdTOMp16+ mouse bone marrow stromal (MSC) cell line, irradiated, senescent tdTOM+ cells
T1 sequence (P14234 whole entry): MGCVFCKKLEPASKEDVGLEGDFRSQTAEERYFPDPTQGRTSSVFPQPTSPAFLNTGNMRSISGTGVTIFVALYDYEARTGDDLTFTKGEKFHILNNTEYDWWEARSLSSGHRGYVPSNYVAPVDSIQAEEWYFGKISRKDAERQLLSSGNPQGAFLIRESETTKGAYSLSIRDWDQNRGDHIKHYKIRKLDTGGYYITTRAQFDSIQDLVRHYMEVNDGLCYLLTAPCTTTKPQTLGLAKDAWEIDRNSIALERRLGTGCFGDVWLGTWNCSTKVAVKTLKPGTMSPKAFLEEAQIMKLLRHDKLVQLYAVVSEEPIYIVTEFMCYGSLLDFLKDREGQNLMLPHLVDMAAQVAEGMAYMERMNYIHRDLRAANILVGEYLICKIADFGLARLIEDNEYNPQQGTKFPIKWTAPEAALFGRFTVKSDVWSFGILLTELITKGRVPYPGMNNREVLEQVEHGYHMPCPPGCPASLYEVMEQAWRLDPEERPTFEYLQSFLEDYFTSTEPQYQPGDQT
Method: FIG. 7A-FIG. 7B show shRNA knockdown of Fgr in vitro and inhibition of activation of Fgr by TL02-59. FIG. 7A) The tdTOMp16+ cell line was transfected with three individual Fgr shRNAs. […] (Phospho-FGR (Tyr412) Rabbit Polyclonal Antibody. Company: Thermo Fisher Scientific, Catalogue #PA5-64583).
FIG. 23A-FIG. 23C. […] FIG. 23A—Irradiated tdTOMp16+ non-senescent (tdTOM−) and senescent (tdTOM+) cells were cultured on the top well of the transwell, and the target C57BL/6 stromal cells were cultured on the bottom well. Cells were treated with either vehicle or 10 nM Fgr inhibitor TL02-59 and after 10 days, target cells were harvested for RNA, and RT-qPCR was performed for TGF-β and Collagen 3 genes. FIG. 23B—Inhibition of Fgr phosphorylation by TL02-59 was confirmed by western blot from the vehicle and TL02-59-treated cell lysates of irradiated senescent (tdTOM+) cells (n=3, *P=<0.05; **P=0.01). […] NS nonsignificant), P values were calculated by t test.
The role of Fgr in fibrosis induction was next investigated by two methods of inhibition: first, pharmacologic inhibition of Fgr was applied by adding the Fgr-specific small-molecule inhibitor TL02-59 (FIG. 23A, FIG. 23B). […] Using the transwell non-contact coculture system, the effect of a specific inhibitor of Fgr TL02-59 (10 nM) on the induction of biomarkers of fibrosis in target cells by tdTOM+ senescent cells was measured for 10 days. […]

Fgr (Homo sapiens, UniProt P09769), sequence (P09769 whole entry, species assumed): as the sequence (P09769 whole entry) above

phosphorylation of Fgr (Tyr412) (Fgr [3]; 0.1 μM TL02-59, tdTOMp16+ cell line, FIG. 7B): Inhibition of phosphorylation of Fgr
Compound: CCN1CCN(Cc2ccc(NC(=O)c3ccc(C)c(Oc4ncnc5cc(OC)c(OC)cc45)c3)cc2C(F)(F)F)CC1 [TL02-59]
kinases inhibited at 10 nM concentration (Fgr [1]; 10 nM): inhibits only Fgr
concentration with complete inhibition of Fgr (Fgr [1]): above 10 nM
concentration with partial inhibition of Fgr (Fgr [1]): 0.1 to 1 nM
selectivity for Fgr over other kinases (Fgr [1]): remarkably selective for Fgr; also recorded: Fgr specific in the nanomolar concentration
migration of gfp+ monocyte/macrophages towards senescent cells from irradiated tdTOMp16+ stromal cell line (gfp+ bone marrow cells): abrogated monocyte/macrophages recruitment; also recorded: significantly reduced the migration; also recorded: inhibited; also recorded: prevents migration
concentration required for inhibition of other similar kinases (other similar kinases): 100 to 1000 nM
secretion of senescence associated secretory chemokines (chemokine array) [2]: reduces secretion of senescence associated secretory chemokines
primary target kinase (Src-family kinase Fgr): primary target
Fgr phosphorylation in irradiated senescent (tdTOM+) cells, western blot (Fgr [3]; vehicle vs TL02-59 treated cell lysates, FIG. 23): inactivated Fgr; also recorded: inhibited
